Measurements from patent US20160115189A1, “PARASITICIDAL COMPOUNDS, METHODS, AND FORMULATIONS” (ELI LILLY AND COMPANY, priority 2013, published 2016).

Test system: adult brown tick (Rhipicephalus sanguineus)
Assay: Assay 5: adult brown tick infestations on dogs
Type: in vivo, Rhipicephalus sanguineus on beagle dogs
Details: 10 mg/kg topical spot-on
Protocol: The total number of live parasites present on each dog is determined for each interval, and this number is transformed using the natural logarithm transformation plus one (Ln count+1); addition of one to each count served to adjust for counts that are zero. Geometric mean (GM) group tick and flea counts are obtained via back-transformation of group mean transformed counts and subtracting one. The negative control group is used for comparison to treated groups for the calculation of percent efficacy (% reduction in live parasite counts). GM percent efficacy of treatments is calculated using the following formula: […]
The therapeutic (knockdown) and residual efficacy of the Example 1-4 compounds, when administered via topical spot-on at 10 mg/kg, is evaluated against adult brown tick (Rhipicephalus sanguine us) infestations on dogs. Twenty (20) beagle dogs are allocated to either an untreated, negative control group or one of four treated groups (n=4 dogs per group). Dogs are infested with approximately 50 unfed, adult R. sanguineus ticks on Days −1, 5, 12, 19 and 28. On Day 0, dogs are treated with Example 1-4 compound formulations (each, 50 mg/ml of technical active dissolved in a vehicle solution of propylene carbonate, benzyl alcohol, and isopropyl myristate), applied via topical spot-on in a volume so as to achieve a point dose of 10 mg/kg. Tick counts and classification are conducted on Days 2, 7, 14, 21 and 30. GM percent efficacy of treatments against ticks is calculated using the formula in Assay 3.

| Structure (SMILES) | GM percent efficacy (Day 2, R. sanguineus) | Geometric Mean Group Live Tick Counts (Day 2, R. sanguineus) | GM percent efficacy (Day 7, R. sanguineus) | Geometric Mean Group Live Tick Counts (Day 7, R. sanguineus) | GM percent efficacy (Day 14, R. sanguineus) | Geometric Mean Group Live Tick Counts (Day 14, R. sanguineus) | GM percent efficacy (Day 21, R. sanguineus) | Geometric Mean Group Live Tick Counts (Day 21, R. sanguineus) | GM percent efficacy (Day 30, R. sanguineus) | Geometric Mean Group Live Tick Counts (Day 30, R. sanguineus) |
| --- | --- | --- | --- | --- | --- | --- | --- | --- | --- | --- |
| CC[C@H]1CCC[C@H](NC(=O)c2ccncn2)[C@@H](C)C(=O)C2=C[C@@H]3[C@@H](C=C[C@@H]4C[C@@H](O[C@@H]5O[C@@H](C)[C@H](OC)C(OC)[C@H]5OC)C[C@@H]34)[C@@H]2CC(=O)O1 (stereo partly drawn) [Example 2, N-((2R,3aS,5aR,5bS,9S,14R,16aS,16bR)-9-ethyl-14-methyl-7,15-dioxo-2-(((2R,3R,5S,6S)-3,4,5-trimethoxy-6-methyltetrahydro-2H-pyran-2-yl)oxy)-2,3,3a,5a,5 b,6,7,9,10,11,12,13,14,15,16a,16b-hexadecahydro-1H-as-indaceno[3,2-d][1]oxacyclododecin-13-yl)pyrimidine-4-carboxamide] | (53.80) | 14.55 | (99.12) | 0.19 | (73.29) | 5.82 | (76.46) | 7.91 | (33.99) | 17.31 |
| CC[C@H]1CCC[C@H](NC(=O)c2ccncc2)[C@@H](C)C(=O)C2=C[C@@H]3[C@@H](C=C[C@@H]4C[C@@H](O[C@@H]5O[C@@H](C)[C@H](OC)C(OC)[C@H]5OC)C[C@@H]34)[C@@H]2CC(=O)O1 (stereo partly drawn) [Example 3, N-((2R,3aS,5aR,5bS, 9S,13S,14R,16aS, 16bR)-9-ethyl-14-methyl-7,15-dioxo-2-(((2R,3R,5S,6S)-3,4,5-trimethoxy-6-methyltetrahydro-2H-pyran-2-yl)oxy)-2,3,3a,5a,5b,6,7,9,10,11,12,13,14, 15,16a,16b-hexadecahydro-1H-as-indaceno[3,2-d][1]oxacyclododecin-13-yl)isonicolina-mide] | (62.52) | 11.80 | (85.01) | 3.23 | (76.50) | 5.12 | (82.44) | 5.90 | (41.02) | 15.47 |
| CC[C@H]1CCC[C@H](NC(=O)c2cc(C)on2)[C@@H](C)C(=O)C2=C[C@@H]3[C@@H](C=C[C@@H]4C[C@@H](O[C@@H]5O[C@@H](C)[C@H](OC)C(OC)[C@H]5OC)C[C@@H]34)[C@@H]2CC(=O)O1 (stereo partly drawn) [Example 4, N-((2R,3aS,5aR,5bS, 9S,13S,14R,16aS, 16bR)-9-ethyl-14-methyl-7,15-dioxo-2-(((2R,3R,5S,6S)-3,4,5-trimethoxy-6-methyltetrahydro-2H-pyran-2-yl)oxy)-2,3,3a,5a,5b,6,7,9, 10,11,12,13,14,15, 16a,16b-hexadecahydro-1H-as-indaceno[3,2-d][1]oxacyclododecin-13-yl)-5-methyl-isoxazole-3-carboxamide] | (67.71) | 10.17 | (96.60) | 0.73 | (82.25) | 3.86 | (81.13) | 6.34 | (26.88) | 19.17 |
